Like-named read-outs stand apart in the source and are kept apart here.
Experiments:
Assay type in all cases: cell-based
[1] = test system: LAPC4 prostate cancer cells; assay: Antiproliferative effects in LAPC4 cells (CellTiter Glo); conditions: LAPC4 cells (AKT1 E17K allele), read-out: LAPC4 proliferation IC50
Method in brief: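 LAPC4 cells were cultured in IMDM with 12% FBS and 1% P/S, seeded at 1,000 cells/well and exposed to compound dilutions in DMSO. After 72 h, intracellular ATP was measured by CellTiter Glo luminescence, and IC50 values came from a log(inhibitor) vs. response Hill fit.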

AKT2 = target: T1, AKT2 (Homo sapiens, UniProt P31751); assay: Live cell AKT2 target engagement by NanoBRET competitive probe displacement; conditions: HEK293 cells transfected with kinase-NanoLuciferase fusion, 2 h at 37° C.
T1 construct: expressed in transfected cells; host or cells: HEK293
T1 sequence (P31751 whole entry, the tested form may be a part): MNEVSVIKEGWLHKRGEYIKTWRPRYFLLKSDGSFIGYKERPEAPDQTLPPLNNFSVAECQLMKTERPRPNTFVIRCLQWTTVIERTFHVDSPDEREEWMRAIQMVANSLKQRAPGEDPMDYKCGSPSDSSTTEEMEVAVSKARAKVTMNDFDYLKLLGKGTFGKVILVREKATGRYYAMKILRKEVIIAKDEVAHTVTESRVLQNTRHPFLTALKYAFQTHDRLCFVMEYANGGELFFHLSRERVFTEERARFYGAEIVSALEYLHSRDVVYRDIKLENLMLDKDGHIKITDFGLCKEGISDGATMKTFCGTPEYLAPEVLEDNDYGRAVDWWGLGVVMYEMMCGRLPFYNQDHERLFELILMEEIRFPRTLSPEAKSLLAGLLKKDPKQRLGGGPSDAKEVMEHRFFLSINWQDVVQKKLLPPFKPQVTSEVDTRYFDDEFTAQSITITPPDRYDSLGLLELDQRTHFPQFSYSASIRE
Description: Determining Live Cell AKT1 E17K, AKT1 WT, and AKT2 Target Engagement by NanoBRET Competitive Probe Displacement.
Live cell target engagement assays were performed as described (Vasta, J. D. et al. Cell Chem Biol 2018, 25(11), 206-214). Briefly, HEK293 cells were transfected with plasmids encoding kinase-NanoLuciferase fusion proteins overnight. Cells were then treated with serial dilutions of compound and an ˜EC50 concentration of fluorescently-tagged ATP-competitive tracer (Promega). After incubation for 2 h at 37° C., luciferase substrate and extracellular luciferase inhibitor were added to all wells, and luminescent intensity at 460 nm and 600 nm were measured on a multimode plate-reader. The ratio of E600/E460 was calculated to give the tracer engagement signal (BRET). IC50 values were calculated by fitting BRET values to a log(inhibitor) vs. response Hill equation.

AKT1 WT = target: T2, AKT1 WT (Homo sapiens, UniProt P31749); assay: Live cell AKT1 WT target engagement by NanoBRET competitive probe displacement; conditions: HEK293 cells transfected with kinase-NanoLuciferase fusion, 2 h at 37° C.
T2 construct: expressed in transfected cells; host or cells: HEK293
T2 sequence (P31749 whole entry, the tested form may be a part): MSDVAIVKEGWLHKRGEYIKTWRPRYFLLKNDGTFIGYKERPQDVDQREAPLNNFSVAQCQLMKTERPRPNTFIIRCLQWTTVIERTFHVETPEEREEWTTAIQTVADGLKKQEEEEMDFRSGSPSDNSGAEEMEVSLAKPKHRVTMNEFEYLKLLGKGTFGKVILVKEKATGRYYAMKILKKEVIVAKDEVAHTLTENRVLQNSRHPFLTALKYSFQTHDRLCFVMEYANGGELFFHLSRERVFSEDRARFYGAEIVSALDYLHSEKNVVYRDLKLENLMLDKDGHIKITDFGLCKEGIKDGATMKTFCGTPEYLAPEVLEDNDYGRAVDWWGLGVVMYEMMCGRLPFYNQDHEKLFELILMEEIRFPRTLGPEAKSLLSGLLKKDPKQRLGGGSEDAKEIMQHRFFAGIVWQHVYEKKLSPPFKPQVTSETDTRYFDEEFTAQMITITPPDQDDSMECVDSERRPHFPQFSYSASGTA
Method in brief: (§1)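 HEK293 cells transiently expressing kinase–NanoLuciferase fusions (overnight transfection) were treated with serial compound dilutions plus fluorescent ATP-competitive tracer at ~EC50 concentration for 2 h at 37 °C. BRET ratio E600/E460 measured after substrate and extracellular luciferase inhibitor addition; IC50 from log(inhibitor)–response Hill fit.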

AKT1 E17K = target: T3, AKT1 E17K (Homo sapiens, UniProt P31749, E17K); assay: Live cell AKT1 E17K target engagement by NanoBRET competitive probe displacement; conditions: HEK293 cells transfected with kinase-NanoLuciferase fusion, 2 h at 37° C.
T3 construct: expressed in transfected cells; host or cells: HEK293
T3 sequence (P31749 whole entry E17K, the tested form may be a part): as the sequence (P31749 whole entry, the tested form may be a part) above, with E17K counted along it
Method in brief: as §1

| IC50 ([1]; Homo sapiens, LAPC4, 72 h) | IC50 (AKT2) | IC50 (AKT1 WT) | IC50 (AKT1 E17K) | IC50 ([1]; 72 h) | Structure (SMILES) |
| --- | --- | --- | --- | --- | --- |
| 212 nM | 136 nM | 22 nM | 63 nM |  | C=CC(=O)N1CC2(CCCC(N[C@H]3CCc4cc(-n5c(-c6cccnc6N)nc6ccc(-n7cccn7)nc65)ccc43)C2)C1 (single isomer, unassigned) [Example 78, 1-((*)-6-(((S)-5-(2-(2-aminopyridin-3-yl)-5-(1H-pyrazol-1-yl)-3H-imidazo[4,5-b]pyridin-3-yl)-2,3-dihydro-1H-inden-1-yl)amino)-2-azaspiro[3.5]nonan-2-yl)prop-2-en-1-one] |
| 3650 nM | 252 nM | 289 nM | 897 nM |  | C=C1CCN(c2ccccc2C(=O)N[C@H]2CCc3cc(-n4c(-c5cccnc5N)nc5ccc(-n6cccn6)nc54)ccc32)C1=O [Example 42, (S)-N-(5-(2-(2-aminopyridin-3-yl)-5-(1H-pyrazol-1-yl)-3H-imidazo[4,5-b]pyridin-3-yl)-2,3-dihydro-1H-inden-1-yl)-2-(3-methylene-2-oxopyrrolidin-1-yl)benzamide] |
| 127 nM | 58.8 nM | 318 nM | 14.5 nM |  | C=CC(=O)N1CCC(N[C@H]2CCc3cc(-n4c(-c5cccnc5N)nc5ccc(-c6nc(C)co6)nc54)ccc32)CC1 [Example 253, 1-(4-{[(1S)-5-[2-(2-aminopyridin-3-yl)-5-(4-methyl-1,3-oxazol-2-yl)imidazo[4,5-b]pyridin-3-yl]-2,3-dihydro-1H-inden-1-yl]amino}piperidin-1-yl)prop-2-en-1-one] |
|  | 672 nM | 26.5 nM | 76.4 nM | 174 nM | C=CC(=O)N1CCC(N[C@H]2CCc3cc(-n4c(-c5cccnc5N)nc5ccc(-n6cccn6)nc54)ccc32)C[C@H]1COC (single isomer, unassigned) [Example 130, 1-[(2S,4*)-4-{[(1S)-5-[2-(2-aminopyridin-3-yl)-5-(pyrazol-1-yl)imidazo[4,5-b]pyridin-3-yl]-2,3-dihydro-1H-inden-1-yl]amino}-2-(methoxymethyl)piperidin-1-yl]prop-2-en-1-one] |
|  | 22.4 nM | 146 nM | 8.12 nM | 110 nM | C=CC(=O)N1CCC(N[C@H]2CCc3cc(-n4c(-c5cccnc5N)nc5ccc(-n6cccn6)nc54)ccc32)C(C)(F)C1 (single isomer, unassigned) [Example 309, 1-((3*,4*)-4-(((S)-5-(2-(2-aminopyridin-3-yl)-5-(1H-pyrazol-1-yl)-3H-imidazo[4,5-b]pyridin-3-yl)-2,3-dihydro-1H-inden-1-yl)amino)-3-fluoro-3-methylpiperidin-1-yl)prop-2-en-1-one] |
| 14.1 nM | 41.6 nM | 13.1 nM | 10.1 nM |  | C=CC(=O)N1CC2(CCC(N[C@H]3CCc4cc(-n5c(-c6cccnc6N)nc6ccc(-n7cccn7)nc65)ccc43)CC2)C1 [Example 32, 1-(7-{[(1S)-5-[2-(2-aminopyridin-3-yl)-5-(pyrazol-1-yl)imidazo[4,5-b]pyridin-3-yl]-2,3-dihydro-1H-inden-1-yl]amino}-2-azaspiro[3.5]nonan-2-yl)prop-2-en-1-one] |
| 1520 nM | 968 nM | 3290 nM | 150 nM |  | C=CC(=O)N1CCC(N[C@H]2CCc3cc(-n4c(-c5cccnc5N)nc5ccc(N6CCN(C)CC6)nc54)ccc32)CC1 [Example 259, 1-(4-{[(1S)-5-[2-(2-aminopyridin-3-yl)-5-(4-methylpiperazin-1-yl)imidazo[4,5-b]pyridin-3-yl]-2,3-dihydro-1H-inden-1-yl]amino}piperidin-1-yl)prop-2-en-1-one] |
| 433 nM | 484 nM | 967 nM | 37.8 nM |  | C=CC(=O)N1CCC(N[C@H]2CCc3cc(-n4c(-c5cccnc5N)nc5ccc(C6CC6)nc54)ccc32)C(F)C1 (single isomer, unassigned) [Example 176, 1-((3*,4*)-4-(((S)-5-(2-(2-aminopyridin-3-yl)-5-cyclopropyl-3H-imidazo[4,5-b]pyridin-3-yl)-2,3-dihydro-1H-inden-1-yl)amino)-3-fluoropiperidin-1-yl)prop-2-en-1-one] |

Reference: US12570655B2, “Cysteine covalent modifiers of AKT1 and uses thereof” (Terremoto Biosciences, Inc., priority 2023, dated 2026)
